Consider four compounds from patent publication US9115093B2, “Substituted bicyclic dihydropyrimidinones and their use as inhibitors of neutrophil elastase activity” (Boehringer Ingelheim International GmbH, priority 2013, dated 2015).

A short description of data set [1]: Drug transport across human CACO-2 cells. The format is in vitro ADME. From the text: Assay for Determination of Drug Transport Across Human CACO-2 Cells
The assay provides information on the potential of a compound to pass the cell membrane, on the extent of oral absorption as well as on whether the compound is actively transported by uptake and/or efflux transporters. For the measurement of permeability across polarized, confluent human cancer colon carcinoma cells 2 (Caco-2) cell monolayers grown on permeable filter supports are used as the in vitro absorption model. Apparent permeability coefficients (PE) of the compounds across the Caco-2 monolayers are measured (pH 7.2, 37° C.) in apical-to-basal (AB) (absorptive) and basal-to-apical (BA) (secretory) transport direction. AB permeability (PEAB) represents drug absorption from the intestine into the blood and BA permeability (PEBA) drug secretion from the blood back into the intestine via both passive permeability as well as active transport mechanisms mediated by efflux and uptake transporters that are expressed on the Caco-2 cells. The compounds are assigned to permeability/absorption classes by comparison of the AB permeabilities with the AB permeabilities of reference compounds with known in vitro permeability and oral absorption in the human. Identical or similar permeabilities in both transport directions indicate passive permeation, vectorial permeability points to additional active transport mechanisms. […] Active transport is concentration-dependently saturable.
Caco-2 cells (1−2*10^5 cells/cm^2 area) are seeded on filter inserts (Costar transwell polycarbonate or PET filters, […] pore size) and cultured (DMEM) for 10 to 25 days. Compounds are dissolved in appropriate solvent (like DMSO, 1-20 mM stock solutions). Stock solutions are diluted with HTP-4 buffer (128.13 mM NaCl, 5.36 mM KCl, 1 mM MgSO4, 1.8 mM CaCl2, 4.17 mM NaHCO3, 1.19 mM Na2HPO4×7H2O, 0.41 mM NaH2PO4×H2O, 15 mM HEPES, 20 mM glucose, pH 7.2) to prepare the transport solutions (typically […] compound, final DMSO <=0.5%). The transport solution (TL) is applied to the apical or basolateral donor side for measuring A-B or B-A permeability (3 filter replicates), respectively. The receiver side contains HTP-4 buffer supplemented with 2% BSA. Samples are collected at the start and end of experiment from the donor and at various time intervals for up to 2 hours also from the receiver side for concentration measurement by LC-MS/MS or scintillation counting. Sampled receiver volumes are is replaced with fresh receiver solution.
The apparent permeability coefficients (PEAB and PEBA) and efflux ratios (PEBA/PEAB) of selected compounds in the Caco-2 drug transport assay described above are listed in Table 17.
A general note: Passage across Caco-2 layers is used to estimate intestinal permeability.

For another data set, the target named is T1, neutrophil elastase (Homo sapiens, UniProt P08246).
T1 sequence (P08246 30-247 limits assumed): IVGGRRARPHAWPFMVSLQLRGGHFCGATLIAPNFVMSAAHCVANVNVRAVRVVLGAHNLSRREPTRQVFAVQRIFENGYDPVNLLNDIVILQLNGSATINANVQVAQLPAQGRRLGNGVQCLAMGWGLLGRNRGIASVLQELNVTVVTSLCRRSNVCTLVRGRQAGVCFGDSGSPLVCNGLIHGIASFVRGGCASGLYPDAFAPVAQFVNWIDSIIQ
The data set is described as follows: Neutrophil elastase inhibitory activity in human plasma. The data set is classed as biochemical. Set-up: The stimulated blood is centrifuged to generate the neutrophil elastase enriched plasma; from tissue; host or cells: plasma from zymosan-stimulated citrated whole blood of healthy human donors. The settings on record: neutrophil elastase enriched human plasma (zymosan-stimulated blood), substrate MeOSuc-Ala-Ala-Pro-Val-AMC. The procedure: Assay for the Determination of Neutrophil Elastase Inhibitory Activity in Human Plasma
Citrated blood from human healthy donors is mixed with zymosan suspension and incubated at room temperature. This leads to the stimulation of neutrophils and the release of neutrophil elastase into the plasma. The stimulated blood is centrifuged to generate the neutrophil elastase enriched plasma.
Preparation of Zymosan Working Solution:
• single 45 ml blood sample is taken into a 50 ml tube containing citrate (3.13%, 5 mL) and the tube is gently inverted 4 times. • Immediately after blood sampling, zymosan working solution (5 mL) is added. • After the addition of zymosan working solution, the tubes are capped, mixed gently and incubated at 22° C. for 15 min on a shaker at 20 rpm. • Make 10 ml aliquots after the incubation time. • Centrifuge the 15 ml tubes at 800 g for […] at 4° C. in a Jouan centrifuge. • Harvest the plasma and make 1-5 ml aliquots. • Store the plasma at −80° C.
Various concentrations of the neutrophil elastase inhibitor are incubated with plasma. Subsequently, the enzyme activity is measured using the fluorogenic substrate MeOSuc-Ala-Ala-Pro-Val-AMC (Bachem Cat. No. 1-1270, substrate concentration: 250 μM, pH 7.5, 25 mM TRIS buffer, 250 mM NaCl) in analogous fashion as described for the human neutrophil assay. A dose response curve is generated to calculate the EC50 of the inhibitor. The analysis of the data is performed by the calculation of the percentage of fluorescence in the presence of the test compound compared to the fluorescence of the vehicle control after subtracting the background fluorescence: An inhibitor of the neutrophil elastase enzyme will give values between 100% control (no inhibition) and 0% control (complete inhibition). The human plasma shift of selected compounds can be calculated using the following equation: Human plasma shift=(EC50 in human plasma assay)/(IC50 in human neutrophil elastase assay) The EC50 values of selected compounds in the human plasma assay described above are listed in Table 14.

For orientation: efflux ratio means a quotient of directional permeabilities that is used to spot active efflux. A word on the EC50: it is the concentration that produces a half-maximal response. Higher therefore signals a less potent agent. On to `N#Cc1ccc(C2C3=C(CCCC3=O)N(c3cccc(C(F)(F)F)c3)C(=O)N2C(=O)NCCO)cc1` (stereo not shown) [Example 39.3], for which, in data set [1] (Caco-2 monolayers, apical-to-basal, pH 7.2, 37° C., read-out: PEAB), the Papp A→B at 10 nM worked out at 12.8 ×10⁻⁶ cm/s. For the same compound, the Papp B→A at 10 nM in data set [1] (Caco-2 monolayers, basal-to-apical, pH 7.2, 37° C., read-out: PEBA) turned out to be 76.5 ×10⁻⁶ cm/s. For the same compound, the efflux ratio at 10 nM in data set [1] (pH 7.2, Caco-2, PEBA/PEAB) was 6. For the same compound, the EC50 on neutrophil elastase is 6 nM.

As for `CS(=O)(=O)CCNC(=O)N1C(=O)N(c2cccc(C(F)(F)F)c2)C2=C(C(=O)CCC2)C1c1ccc(C#N)cc1` (stereo not shown) [Example 39.19], at neutrophil elastase, the EC50 is 9 nM. This counts as single-digit nanomolar. On neutrophil elastase, `CC(C)NC(=O)N1C(=O)N(c2cccc(C(F)(F)F)c2)C2=C(C(=O)CCC2)[C@H]1c1ccc(C#N)cc1S(C)(=O)=O` [Example 75.3] had an EC50 of 1 nM. On the same count and under the same terms, then `CS(=O)(=O)c1cc(C#N)ccc1[C@@H]1C2=C(CCCC2=O)N(c2cccc(C(F)(F)F)c2)C(=O)N1C(=O)NCC(F)F` [Example 75.7], with 1 nM.
